Reference: ChEMBL document CHEMBL5096208, “Installation of Pargyline, a LSD1 Inhibitor, in the HDAC Inhibitory Template Culminated in the Identification of a Tractable Antiprostate Cancer Agent” (J Med Chem, 2021)
Active and inactive are the calls of the source. The rule behind the calls is not given here.

Columns and labels:
[1] = Metabolic stability in Sprague-Dawley rat hepatocyte assessed as parent compound remaining at 10 uM incubated for 60 mins by LC-MS/MS analysis; type: ADME, cell-based; conditions: hepatocytes, read-out: Stability
[2] = Metabolic stability in Sprague-Dawley rat hepatocyte assessed as parent compound remaining at 10 uM incubated for 120 mins by LC-MS/MS analysis; type: ADME, cell-based; conditions: hepatocytes, read-out: Stability
[3] = AUC (0 to 24 hrs) in Sprague-Dawley rat at 25 mg/kg, po administered once via gavage measured upto 24 hrs post dose by UPLC-MS/MS analysis; type: ADME, organism-based; design: dose 25 mg/kg, time < 24 hrs, route po; conditions: in vivo
[4] = Metabolic stability in Beagle dog hepatocyte assessed as parent compound remaining at 10 uM incubated for 60 mins by LC-MS/MS analysis; type: ADME, cell-based, Canis lupus familiaris; conditions: hepatocytes, read-out: Stability
[5] = organism: Homo sapiens; test: Selectivity ratio of IC50 for human HDAC2 to IC50 for human HDAC6
[6] = Metabolic stability in human hepatocyte assessed as parent compound remaining at 10 uM by LC-MS/MS analysis; type: ADME, cell-based; conditions: hepatocytes, read-out: Stability
[7] = tested on: PC-3; test: Induction of H3K4ME2 accumulation in human PC-3 cells at 0.5 to 10 uM incubated for 48 hrs by Western blot analysis; type: functional, cell-based; conditions: dose 0.5-10 µM
[8] = Metabolic stability in human hepatocyte assessed as parent compound remaining at 10 uM incubated for 120 mins by LC-MS/MS analysis; type: ADME, cell-based; conditions: hepatocytes, read-out: Stability
[9] = Metabolic stability in Beagle dog hepatocyte assessed as intrinsic clearance at 10 uM by LC-MS/MS analysis; type: ADME, cell-based, Canis lupus familiaris; conditions: hepatocytes, read-out: CLH
[10] = Oral bioavailability in Sprague-Dawley rat at 25 mg/kg administered once via gavage measured upto 24 hrs post dose by UPLC-MS/MS analysis; type: ADME, organism-based; conditions: in vivo
[11] = organism: Homo sapiens; test: Selectivity ratio of IC50 for human HDAC3 to IC50 for human HDAC6
[12] = tested on: PC-3; test: Induction of apoptosis in human PC-3 cells at 1.25 to 10 uM incubated for 48 hrs by Western blot analysis; type: functional, cell-based; conditions: dose 1.25-10 µM
[13] = molecular target: Lysine-specific histone demethylase 1A (Homo sapiens) (UniProt O60341); test: Inhibition of LSD1 (unknown origin) using […] as substrate at 1 uM incubated for 48 hrs followed by substrate addition and measured after 2 hrs by microplate reader analysis; conditions: time 50.0 hrs
[14] = tested on: PC-3; test: Antitumor activity against human PC-3 cells xenografted in athymic nude mouse assessed as tumor growth inhibition at 50 mg/kg, po qd measured upto 25 days by caliper method relative to control; type: functional; conditions: PC-3, 600 h, time <= 25 day, read-out: TGI
[15] = molecular target: T1, Protein deacetylase HDAC6 (Homo sapiens, UniProt Q9UBN7); test: Inhibition of human HDAC6 (379 to 382 residues) using RHKKAc as flurogenic substrate
T1 sequence (Q9UBN7 whole entry): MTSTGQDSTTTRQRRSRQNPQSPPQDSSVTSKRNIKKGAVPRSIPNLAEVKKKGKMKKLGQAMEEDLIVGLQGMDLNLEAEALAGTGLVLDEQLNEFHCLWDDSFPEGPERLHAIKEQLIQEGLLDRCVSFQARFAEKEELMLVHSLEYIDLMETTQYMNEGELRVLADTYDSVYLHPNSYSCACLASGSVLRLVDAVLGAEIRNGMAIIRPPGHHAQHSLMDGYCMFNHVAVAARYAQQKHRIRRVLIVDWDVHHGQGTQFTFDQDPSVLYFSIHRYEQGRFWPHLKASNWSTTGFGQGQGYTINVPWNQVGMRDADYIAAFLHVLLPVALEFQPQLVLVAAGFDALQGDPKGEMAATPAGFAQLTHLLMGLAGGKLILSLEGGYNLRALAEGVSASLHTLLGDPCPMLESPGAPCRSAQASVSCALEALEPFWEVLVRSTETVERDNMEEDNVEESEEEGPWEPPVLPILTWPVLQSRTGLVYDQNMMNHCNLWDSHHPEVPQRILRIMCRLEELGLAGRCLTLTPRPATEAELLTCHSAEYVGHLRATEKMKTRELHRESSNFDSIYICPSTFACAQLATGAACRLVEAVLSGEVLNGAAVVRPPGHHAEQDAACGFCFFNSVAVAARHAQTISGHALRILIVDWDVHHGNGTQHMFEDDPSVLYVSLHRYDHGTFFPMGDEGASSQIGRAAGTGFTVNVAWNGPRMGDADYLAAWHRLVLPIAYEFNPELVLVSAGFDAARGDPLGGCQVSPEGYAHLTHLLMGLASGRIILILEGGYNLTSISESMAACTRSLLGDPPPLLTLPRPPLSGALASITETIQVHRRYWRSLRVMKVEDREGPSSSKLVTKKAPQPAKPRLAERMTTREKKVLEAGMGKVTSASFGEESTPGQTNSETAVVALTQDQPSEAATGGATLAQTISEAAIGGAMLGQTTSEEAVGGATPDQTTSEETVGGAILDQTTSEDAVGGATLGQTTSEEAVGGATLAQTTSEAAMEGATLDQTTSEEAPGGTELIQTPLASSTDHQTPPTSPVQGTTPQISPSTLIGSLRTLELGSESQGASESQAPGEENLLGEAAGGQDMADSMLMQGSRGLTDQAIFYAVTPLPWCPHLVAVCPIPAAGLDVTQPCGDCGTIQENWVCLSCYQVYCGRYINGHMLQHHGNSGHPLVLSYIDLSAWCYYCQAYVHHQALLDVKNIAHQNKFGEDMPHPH

[16] = Metabolic stability in human hepatocyte assessed as parent compound remaining at 10 uM incubated for 30 mins by LC-MS/MS analysis; type: ADME, cell-based; conditions: hepatocytes, read-out: Stability
[17] = Metabolic stability in human hepatocyte assessed as half life at 10 uM by LC-MS/MS analysis; type: ADME, cell-based; conditions: hepatocytes
[18] = Clearance in Sprague-Dawley rat at 2 mg/kg, iv administered as single dose through tail vein measured upto 24 hrs post dose by UPLC-MS/MS analysis; type: ADME, organism-based; conditions: in vivo
[19] = tested on: DU-145; test: Antitumor activity against human DU-145 cells xenografted in athymic nude mouse assessed as tumor growth inhibition at 100 mg/kg, po administered twice daily and measured upto 60 days by caliper method relative to control; type: functional; conditions: DU-145, 1440 h, time <= 60 day, read-out: TGI
[20] = tested on: PC-3; test: Upregulation of acetyl-histone H3 in human PC-3 cells at 0.625 to 5 uM by Western blot analysis; type: functional, cell-based; conditions: dose 0.625-5 µM
[21] = AUC (0 to infinity) in Sprague-Dawley rat at 25 mg/kg, po formulated using SMEDDS administered once via gavage measured upto 24 hrs post dose by UPLC-MS/MS analysis; type: ADME, organism-based; design: dose 25 mg/kg, time < 24 hrs, route po; conditions: in vivo

remaining at 1 h, 10 µM [1]: 52.5%
remaining at 2 h, 10 µM [2]: 35.9%
AUC(0-t) at 24 h [3]: 108 ng·h/mL
remaining at 1 h, 10 µM [4]: 81.2%
Ratio IC50 [5]: 77
remaining at 10 µM [6]: 100%
remaining at 2 h, 10 µM [8]: 95.5%
CLint scaled at 10 µM [9]: 21.6 mL/min/kg
bioavailability [10]: 11.8%
Ratio IC50 [11]: 5.8
inhibition [13]: Active
IC50 [15]: 20 nM
remaining at 0.5 h, 10 µM [16]: 103%
half-life at 10 µM [17]: 13.3 h
clearance [18]: 500 mL/min/kg
AUC(0-inf) [21]: 596 ng·h/mL
SMILES: C#CCN(C)Cc1cccc(NC(=O)CCCCCCC(=O)NO)c1
Activity [7]: Active
Activity [12]: Active
inhibition in vivo at 50 mg/kg [14]: 36.9%
inhibition in vivo at 100 mg/kg [19]: 73.6%
Activity [20]: Active
